Measurements taken from patent US20090325314A1, “N-Methyl Scanning Mutagenesis” (UNIVERSITY OF SOUTHERN CALIFORNIA, priority 2008, published 2009).
Where no end group is shown, it is not given here. [ ]: non-standard residue; d: D form. NMeK = CN[C@@H](CCCCN)C(=O)O

Experiments:
Gαi1 = molecular target: T1, Gαi1 (Homo sapiens, UniProt P63096); experiment: R6A-1 competition/equilibrium binding; conditions: relative to unmodified peptide
T1 construct: made in house; host or cells: cell-free TnT reticulocyte lysate system (Promega), T7 promoter
Experimental: FIG. 2. Relative Peptide Affinities. (A) Radiolabeled Gαi1 was incubated with immobilized, biotinylated R6A and varying concentrations of either R6A (▾), unmodified peptide (▴), or N-Me-K (♦) for 3 hr. at 4° C. The radiolabel bound was normalized to that which bound in the absence of competitor. The plotted values represent the mean of three experimental values and the error bars correspond to the standard deviation. (B) Experimentally determined binding data is shown above. The error is calculated based on the standard error of the mean (SEM) for the log IC50 using GraphPad 5.0.
R6A-1 Competition/Equilibrium Binding: R6A (MSQTKRLDDQLYWWEYL) and Bio-R6A (Bio-MSQTKRLDDQLYWWEYL) were synthesized by previously described methods. This peptide was immobilized to NeutrAvidin beads (Promega) using the manufacturer's instructions. Gαi1 was expressed using the TnT reticulocyte lysate system (T7 promoter, Promega). (250 ng) plasmid DNA and (25 μCi) L-35S-Met (MP Biomedicals) were used in an (25 μL) expression. […] Specific Activity was measured by TCA precipitation.
400 pmol immobilized R6A, and (100,000 cpm) Gαi1 were suspended in (1 mL) HBS-EP buffer. Varying quantities of free peptide (R6A, Unmodified peptide, or N-Me-K) were added. […] After the final wash, the immobilized sample was transferred to scintillation vials and analyzed by scintillation counting. […]

Gαi1·GDP [1] = molecular target: T2, Gαi1·GDP (Homo sapiens, UniProt P63096); experiment: TnT pulldown binding of N-methyl peptide library; parameters: made in house; host or cells: cell-free TnT coupled transcription/translation system (Promega); cDNA clone from UMR cDNA Resource Center; conditions: compared with unmodified peptide
Experimental: Binding affinity of N-methyl peptide library: TnT pulldown experiments were carried out as described in [10] with some modifications. Human cDNA clones encoding G proteins with the pcDNA3.1+ vector (Invitrogen) were obtained from the UMR cDNA Resource Center (www.cdna.org). The DNA clones for Gαi1, and HRas were translated into 35S-Met labeled proteins using a TnT coupled transcription/translation system (Promega). Translation reactions were desalted using G-25 spin columns (GE Healthcare) and the translation yield was calculated by TCA precipitation. Equal amounts of each labeled subunit were added to (5 μL) neutravidin-agarose containing (2 nmol) pre-bound biotin labeled peptide in (1 mL) HBS-EP buffer. Control neutravidin-agarose beads were loaded with (d)-biotin (Anaspec). Binding reactions proceeded for 2 hrs at 4° C. followed by filtration and washing with HBS-EP. The matrix was analyzed by scintillation counting and the percent bound was determined by the matrix counts divided by the total counts as determined by TCA precipitation. Values were normalized to the percent bound of unmodified peptide.

Gαi1·GDP [2] = molecular target: T2, Gαi1·GDP; conditions: binding to Gαi1·GDP; literature value; cited from earlier work

T2 sequence (P63096 whole entry): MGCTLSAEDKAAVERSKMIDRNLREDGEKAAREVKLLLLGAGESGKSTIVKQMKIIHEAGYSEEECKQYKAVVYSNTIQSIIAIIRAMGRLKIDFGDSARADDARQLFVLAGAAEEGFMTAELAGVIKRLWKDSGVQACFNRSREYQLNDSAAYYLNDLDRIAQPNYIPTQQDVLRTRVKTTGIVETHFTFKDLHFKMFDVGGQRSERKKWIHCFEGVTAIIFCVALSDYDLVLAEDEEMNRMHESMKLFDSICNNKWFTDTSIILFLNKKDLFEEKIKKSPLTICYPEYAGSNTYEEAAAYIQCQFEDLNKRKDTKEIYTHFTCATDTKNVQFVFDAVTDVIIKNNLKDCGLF
T1 sequence (P63096 whole entry): as above

ΔΔG (Gαi1; equilibrium competition with R6A) [kcal/mol] | enhanced binding (fold) by equilibrium competition using the R6A peptide (Gαi1; immobilized R6A, radiolabeled Gαi1, 3 hr at 4° C.) [fold] | peptide binding affinity to Gαi1·GDP (qualitative) (Gαi1·GDP [1]) | Substance | Kd (Gαi1·GDP [2]) [nM]
-0.50 | 2.5 | increased binding affinity | NNNNND[NMeK]LYWWEFL [N-Me-K] | –
– | – | – | DKLYWWEFL | 200
– | – | – | MSQTKRLDDQLYWWEYL [Compound R6A] | 60
